Assay results: US20240368134A1, “AROMATIC COMPOUND, PHARMACEUTICAL COMPOSITION, AND APPLICATION THEREOF” (SHANGHAI KYGENT PHARMACEUTICAL CO., LTD, priority 2021, published 2024)

Test system: not listed separately
Assay: Pharmacokinetic evaluation experiment in mice (IV and PO)
Assay type: in vivo
Details: male ICR mice, IV 5 mg/kg, plasma
Protocol: 120 healthy adult male ICR mice were selected and divided into 20 groups according to the principle of similar body weight, with 6 mice in each group of IV (10 groups) and 6 mice in each group of PO (10 groups). An appropriate amount of sample was weighed, sequentially added with an appropriate amount of DMA, Solutol, and Saline according to the volume ratio of 10:10:80, and stirred and sonicated to achieve a clarification of 1 mg/mL. After overnight fasting, mice in the IV group were intravenously administered with a volume of 5 mL/kg and a dose of 5 mg/kg, respectively; and mice in the PO group were intragastrically administered with a volume of 30 mL/kg and a dose of 30 mg/kg, respectively. Interleaved sampling was performed on every 6 mice after administration of the test compound. In the IV group, approximately 30 μL of blood was collected at 0.0833, 0.25, 0.5, 1, 2, 4, 6, 8, and 24 hours, and placed in a commercial anticoagulant tube pre-filled with EDTA-K2. In the PO group, approximately 30 μL of blood was collected at 0.25, 0.5, 1, 2, 4, 6, 8, and 24 hours, and placed in the commercial anticoagulant tube pre-filled with EDTA-K2. The tubes were centrifuged for 15 minutes to separate the plasma, and the plasma was stored at −80° C. Animals were allowed to eat 2 hours after administration. The content of the test compound in the plasma of mice after intravenous and intragastric administration was determined by LC/MS/MS method. The linear range of the method was 1.00 to 1000 ng/mL: plasma samples were analyzed after protein precipitation.

AUC [ng·h/mL]	CL [mL/min/kg]	T1/2 [h]	Vss [L/kg]	SMILES
3462	24.1	2.35	4.34	CNC(=O)c1cc2c(c(F)c1-c1c(Cl)c(F)cc3c1C[C@@](CN[C@H]1CC[C@](C)(O)CC1)(c1ccccc1)O3)C1CC1O2 (stereo partly drawn) [Compound 14a]

Same assay, conditions: male ICR mice, PO 30 mg/kg vs IV 5 mg/kg

F % [%]	SMILES
102.1	CNC(=O)c1cc2c(c(F)c1-c1c(Cl)c(F)cc3c1C[C@@](CN[C@H]1CC[C@](C)(O)CC1)(c1ccccc1)O3)C1CC1O2 (stereo partly drawn) [Compound 14a]

Same assay, conditions: male ICR mice, PO 30 mg/kg, plasma

AUC [ng·h/mL]	Cmax [ng/mL]	Tmax [h]	SMILES
21209	2697	2.00	CNC(=O)c1cc2c(c(F)c1-c1c(Cl)c(F)cc3c1C[C@@](CN[C@H]1CC[C@](C)(O)CC1)(c1ccccc1)O3)C1CC1O2 (stereo partly drawn) [Compound 14a]

Same assay, conditions: mouse, plasma; male ICR mice, PO 30 mg/kg vs IV 5 mg/kg

bioavailability [%]	SMILES
108	CNC(=O)c1cc2c(c(F)c1-c1c(Cl)c(F)cc3c1C[C@@](CN[C@H]1CC[C@H](O)CC1)(c1ccccc1)O3)C1CC1O2 (stereo partly drawn) [Compound 13a]
40.3	CNC(=O)c1cc2c(c(F)c1-c1c(Cl)c(F)cc3c1C[C@](c1ccccc1)([C@@H]1CC4(CC4)CN1)O3)C1CC1O2 (stereo partly drawn) [Compound 16a]

Same assay, conditions: mouse; male ICR mice, IV 5 mg/kg, plasma

clearance [mL/min/kg]	half-life [h]	SMILES
41.4	2.23	CNC(=O)c1cc2c(c(F)c1-c1c(Cl)c(F)cc3c1C[C@@](CN[C@H]1CC[C@H](O)CC1)(c1ccccc1)O3)C1CC1O2 (stereo partly drawn) [Compound 13a]
56.4	2.28	CNC(=O)c1cc2c(c(F)c1-c1c(Cl)c(F)cc3c1C[C@](c1ccccc1)([C@@H]1CC4(CC4)CN1)O3)C1CC1O2 (stereo partly drawn) [Compound 16a]

Same assay, conditions: mouse; male ICR mice, IV 5 mg/kg, plasma; read-out: AUC

AUC [ng·h/mL]	SMILES
2010	CNC(=O)c1cc2c(c(F)c1-c1c(Cl)c(F)cc3c1C[C@@](CN[C@H]1CC[C@H](O)CC1)(c1ccccc1)O3)C1CC1O2 (stereo partly drawn) [Compound 13a]
1480	CNC(=O)c1cc2c(c(F)c1-c1c(Cl)c(F)cc3c1C[C@](c1ccccc1)([C@@H]1CC4(CC4)CN1)O3)C1CC1O2 (stereo partly drawn) [Compound 16a]

Same assay, conditions: mouse; male ICR mice, IV 5 mg/kg, plasma; read-out: Vss

Vd [L/kg]	SMILES
8.5	CNC(=O)c1cc2c(c(F)c1-c1c(Cl)c(F)cc3c1C[C@@](CN[C@H]1CC[C@H](O)CC1)(c1ccccc1)O3)C1CC1O2 (stereo partly drawn) [Compound 13a]
11.4	CNC(=O)c1cc2c(c(F)c1-c1c(Cl)c(F)cc3c1C[C@](c1ccccc1)([C@@H]1CC4(CC4)CN1)O3)C1CC1O2 (stereo partly drawn) [Compound 16a]

Same assay, conditions: mouse; male ICR mice, PO 30 mg/kg, plasma; read-out: AUC

AUC [ng·h/mL]	SMILES
13100	CNC(=O)c1cc2c(c(F)c1-c1c(Cl)c(F)cc3c1C[C@@](CN[C@H]1CC[C@H](O)CC1)(c1ccccc1)O3)C1CC1O2 (stereo partly drawn) [Compound 13a]
3570	CNC(=O)c1cc2c(c(F)c1-c1c(Cl)c(F)cc3c1C[C@](c1ccccc1)([C@@H]1CC4(CC4)CN1)O3)C1CC1O2 (stereo partly drawn) [Compound 16a]

Same assay, conditions: mouse; male ICR mice, PO 30 mg/kg, plasma; read-out: Cmax

Cmax [ng/mL]	SMILES
2050	CNC(=O)c1cc2c(c(F)c1-c1c(Cl)c(F)cc3c1C[C@@](CN[C@H]1CC[C@H](O)CC1)(c1ccccc1)O3)C1CC1O2 (stereo partly drawn) [Compound 13a]
434	CNC(=O)c1cc2c(c(F)c1-c1c(Cl)c(F)cc3c1C[C@](c1ccccc1)([C@@H]1CC4(CC4)CN1)O3)C1CC1O2 (stereo partly drawn) [Compound 16a]

Same assay, conditions: mouse; male ICR mice, PO 30 mg/kg, plasma; read-out: Tmax

Tmax [h]	SMILES
2	CNC(=O)c1cc2c(c(F)c1-c1c(Cl)c(F)cc3c1C[C@@](CN[C@H]1CC[C@H](O)CC1)(c1ccccc1)O3)C1CC1O2 (stereo partly drawn) [Compound 13a]
2	CNC(=O)c1cc2c(c(F)c1-c1c(Cl)c(F)cc3c1C[C@](c1ccccc1)([C@@H]1CC4(CC4)CN1)O3)C1CC1O2 (stereo partly drawn) [Compound 16a]

Test system: NCI-H2052 cells
Assay: Tumor cell proliferation inhibition experiment (Cell Titer Glo), NCI-H2052
Assay type: cell-based
Details: Homo sapiens, 72 h, NCI-H2052 lung cancer cells, three days incubation
Protocol: (§1) Cell Titer Glo luminescent cell viability assay kit was used to quantify the ATP content in cells, so as to quantify the number of viable cells. […] On the second day, the compound was added to the 96-well plate after a three-fold serial dilution to eight concentrations, and incubated at 37° C. for three days in the 5% carbon dioxide incubator. The culture medium was treated with the addition of Cell Titer Glo luminescent cell viability assay kit (Promega G7570) reagent, incubated for 10 minutes, and then placed in Envision (Pelkin Elmer) to read the luminescence signal. DMSO was used instead of the compound as a control to calculate the inhibition rate (inhibition rate %=(1−compound signal/DMSO signal)*100), and then standard four parameter curve fitting was used to calculate the inhibitory activity IC50.

IC50 [nM]	SMILES
> 10000	CNC(=O)c1cnc(OCCO)c(F)c1-c1c(Cl)c(F)cc2c1C[C@](c1ccccc1)([C@@H]1CCC(=O)N1)O2 [Compound 19a]
7970	C#Cc1c(OCCO)ncc(C(=O)NC)c1-c1c(Cl)c(F)cc2c1C[C@](c1ccccc1)([C@@H]1CCCN1)O2 [Compound 9a]
210	CNC(=O)c1cc2c(c(F)c1-c1c(Cl)c(F)cc3c1C[C@@](CN[C@H]1CC[C@H](O)CC1)(c1ccccc1)O3)C1CC1O2 (stereo partly drawn) [Compound 13a]
1850	CNC(=O)c1cc2c(c(F)c1-c1c(Cl)c(F)cc3c1C[C@](c1ccccc1)([C@@H]1CC4(CC4)CN1)O3)C1CC1O2 (stereo partly drawn) [Compound 16a]

Continued, compound first:

SMILES	IC50 [nM]
CNC(=O)c1cc2c(c(F)c1-c1c(Cl)c(F)cc3c1C[C@@](CN[C@H]1CC[C@](C)(O)CC1)(c1ccccc1)O3)CC(O)C2 (stereo partly drawn) [Compound 80a]	580
CNC(=O)c1cc2c(c(F)c1-c1c(Cl)c(F)cc3c1C[C@](c1ccccc1)([C@@H]1CCCN1)O3)CCC2C#N (stereo partly drawn) [Compound 38a]	750
CNC(=O)c1cc2c(c(F)c1-c1c(Cl)c(F)cc3c1[C@H](C)[C@@](CN[C@H]1CC[C@](C)(O)CC1)(c1ccccc1)O3)C1CC1O2 (stereo partly drawn) [Compound 25a]	260
CNC(=O)c1cc2c(c(F)c1-c1c(Cl)c(F)cc3c1C[C@](c1ccccc1)([C@@H]1CC4(CC4)CN1)O3)N1CCCC1CO2 (stereo partly drawn) [Compound 15a]	2730

Same assay, conditions: NCI-H2052 lung cancer cells, three days incubation

IC50 [nM]	SMILES
360	CNC(=O)c1cc2c(c(F)c1-c1c(Cl)c(F)cc3c1C[C@@](CN[C@H]1CC[C@](C)(O)CC1)(c1ccccc1)O3)C1CC1O2 (stereo partly drawn) [Compound 14a]

Test system: MSTO-211H cells
Assay: Tumor cell proliferation inhibition experiment (Cell Titer Glo), MSTO-211H
Assay type: cell-based
Details: Homo sapiens, 72 h, MSTO-211H lung cancer cells, three days incubation
Protocol: as §1

IC50 [nM]	SMILES
> 10000	CNC(=O)c1cnc(OCCO)c(F)c1-c1c(Cl)c(F)cc2c1C[C@](c1ccccc1)([C@@H]1CCC(=O)N1)O2 [Compound 19a]
> 10000	C#Cc1c(OCCO)ncc(C(=O)NC)c1-c1c(Cl)c(F)cc2c1C[C@](c1ccccc1)([C@@H]1CCCN1)O2 [Compound 9a]
200	CNC(=O)c1cc2c(c(F)c1-c1c(Cl)c(F)cc3c1C[C@@](CN[C@H]1CC[C@H](O)CC1)(c1ccccc1)O3)C1CC1O2 (stereo partly drawn) [Compound 13a]
1730	CNC(=O)c1cc2c(c(F)c1-c1c(Cl)c(F)cc3c1C[C@](c1ccccc1)([C@@H]1CC4(CC4)CN1)O3)C1CC1O2 (stereo partly drawn) [Compound 16a]

The remaining lines, values behind:

SMILES	IC50 [nM]
CNC(=O)c1cc2c(c(F)c1-c1c(Cl)c(F)cc3c1C[C@@](CN[C@H]1CC[C@](C)(O)CC1)(c1ccccc1)O3)CC(O)C2 (stereo partly drawn) [Compound 80a]	490
CNC(=O)c1cc2c(c(F)c1-c1c(Cl)c(F)cc3c1C[C@](c1ccccc1)([C@@H]1CCCN1)O3)CCC2C#N (stereo partly drawn) [Compound 38a]	990
CNC(=O)c1cc2c(c(F)c1-c1c(Cl)c(F)cc3c1[C@H](C)[C@@](CN[C@H]1CC[C@](C)(O)CC1)(c1ccccc1)O3)C1CC1O2 (stereo partly drawn) [Compound 25a]	150
CNC(=O)c1cc2c(c(F)c1-c1c(Cl)c(F)cc3c1C[C@](c1ccccc1)([C@@H]1CC4(CC4)CN1)O3)N1CCCC1CO2 (stereo partly drawn) [Compound 15a]	2880

Same assay, conditions: MSTO-211H lung cancer cells, three days incubation

IC50 [nM]	SMILES
320	CNC(=O)c1cc2c(c(F)c1-c1c(Cl)c(F)cc3c1C[C@@](CN[C@H]1CC[C@](C)(O)CC1)(c1ccccc1)O3)C1CC1O2 (stereo partly drawn) [Compound 14a]
